How the values were obtained:
hTLR8 = biological target: T1, hTLR8 (Homo sapiens, UniProt Q9NR97); test: Human TLR8 Reporter Assay; format: cell-based; details: HEK-Blue hTLR8 cells, 16 hours, normalized to tl8-506 (1 μM) and DMSO
T1 construct: host or cells: HEK-Blue hTLR8 cells (HEK293-derived, own knowledge)
T1 sequence (Q9NR97 27-1041): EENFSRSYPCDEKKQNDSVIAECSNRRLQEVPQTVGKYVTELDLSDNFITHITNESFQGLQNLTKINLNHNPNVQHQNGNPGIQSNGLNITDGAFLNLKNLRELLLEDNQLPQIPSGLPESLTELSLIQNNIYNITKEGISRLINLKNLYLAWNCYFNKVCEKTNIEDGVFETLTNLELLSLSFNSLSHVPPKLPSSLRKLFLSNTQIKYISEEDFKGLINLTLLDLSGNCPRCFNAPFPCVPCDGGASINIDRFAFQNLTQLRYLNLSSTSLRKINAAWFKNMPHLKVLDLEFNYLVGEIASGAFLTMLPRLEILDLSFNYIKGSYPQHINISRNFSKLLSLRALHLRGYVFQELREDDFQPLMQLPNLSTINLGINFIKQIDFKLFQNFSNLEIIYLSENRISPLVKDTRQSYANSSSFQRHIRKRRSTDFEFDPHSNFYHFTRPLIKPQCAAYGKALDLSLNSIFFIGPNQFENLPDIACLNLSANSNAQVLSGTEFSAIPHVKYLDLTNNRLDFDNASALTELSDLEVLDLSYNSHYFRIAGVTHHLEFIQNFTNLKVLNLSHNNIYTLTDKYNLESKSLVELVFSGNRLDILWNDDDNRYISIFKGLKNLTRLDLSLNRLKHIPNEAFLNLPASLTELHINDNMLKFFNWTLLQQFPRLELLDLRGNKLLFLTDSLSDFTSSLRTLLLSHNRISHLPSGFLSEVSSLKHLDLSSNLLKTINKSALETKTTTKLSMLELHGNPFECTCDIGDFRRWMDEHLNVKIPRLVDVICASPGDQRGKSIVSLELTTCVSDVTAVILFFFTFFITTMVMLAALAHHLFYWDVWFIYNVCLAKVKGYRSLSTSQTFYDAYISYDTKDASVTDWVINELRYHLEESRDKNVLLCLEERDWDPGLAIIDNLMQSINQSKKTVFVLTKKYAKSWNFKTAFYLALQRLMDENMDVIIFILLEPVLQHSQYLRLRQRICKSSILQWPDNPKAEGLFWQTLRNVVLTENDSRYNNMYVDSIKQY
Outline: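 HEK-Blue hTLR8 cells (20,000/well) incubated 16 h at 37 °C with 10-point 3-fold compound dilutions in HEK-Blue Detection medium; reporter read as absorbance at 620 nm. Effects normalized between DMSO and tl8-506 (1 μM); EC50 from 4-parameter fit.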

hTLR7 = biological target: T2, hTLR7 (Homo sapiens, UniProt Q9NYK1); test: Human TLR7 Reporter Assay; format: cell-based; details: HEK-Blue hTLR7 cells, 16 hours, normalized to CL097 (6 μM) and DMSO
T2 construct: host or cells: HEK-Blue hTLR7 cells (HEK293-derived, own knowledge)
T2 sequence (Q9NYK1 27-1049): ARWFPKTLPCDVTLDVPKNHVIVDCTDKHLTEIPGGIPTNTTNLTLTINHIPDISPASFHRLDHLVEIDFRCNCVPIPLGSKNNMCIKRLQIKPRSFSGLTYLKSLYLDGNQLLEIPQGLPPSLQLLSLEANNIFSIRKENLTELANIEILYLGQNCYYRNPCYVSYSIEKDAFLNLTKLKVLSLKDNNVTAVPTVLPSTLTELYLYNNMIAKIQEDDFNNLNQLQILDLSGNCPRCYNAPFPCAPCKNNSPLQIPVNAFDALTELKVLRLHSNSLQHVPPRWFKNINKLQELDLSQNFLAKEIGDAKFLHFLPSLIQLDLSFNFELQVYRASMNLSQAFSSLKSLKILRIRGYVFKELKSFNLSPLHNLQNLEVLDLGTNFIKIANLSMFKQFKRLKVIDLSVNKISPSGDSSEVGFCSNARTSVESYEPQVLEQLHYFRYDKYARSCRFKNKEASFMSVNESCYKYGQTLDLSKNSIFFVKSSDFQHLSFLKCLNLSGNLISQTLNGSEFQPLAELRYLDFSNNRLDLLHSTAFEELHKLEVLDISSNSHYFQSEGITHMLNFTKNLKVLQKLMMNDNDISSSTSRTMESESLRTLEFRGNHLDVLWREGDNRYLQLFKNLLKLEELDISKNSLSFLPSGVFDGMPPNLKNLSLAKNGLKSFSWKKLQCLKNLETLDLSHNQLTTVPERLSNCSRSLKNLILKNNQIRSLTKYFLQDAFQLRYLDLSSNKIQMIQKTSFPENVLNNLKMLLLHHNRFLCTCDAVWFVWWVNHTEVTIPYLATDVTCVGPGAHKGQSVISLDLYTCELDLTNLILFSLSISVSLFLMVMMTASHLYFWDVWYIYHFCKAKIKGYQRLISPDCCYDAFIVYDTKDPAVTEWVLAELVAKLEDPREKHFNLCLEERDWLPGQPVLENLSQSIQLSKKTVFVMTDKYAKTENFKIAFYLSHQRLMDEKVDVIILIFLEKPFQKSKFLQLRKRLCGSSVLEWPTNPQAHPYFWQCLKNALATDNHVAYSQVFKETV
Outline: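 HEK-Blue hTLR7 reporter cells (20,000/well) incubated 16 h at 37 °C with 10-point 3-fold compound dilutions; SEAP read by absorbance at 620 nm. Effects normalized between CL097 (6 μM) and DMSO controls; EC50 from 4-parameter fit.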

| SMILES | EC50 (hTLR8) [µM] | EC50 (hTLR7) [µM] |
| --- | --- | --- |
| CCCCNc1nc(N)nc2cn(Cc3nnc(C)o3)nc12 [Compound 172] | 3.99 | 2.79 |
| CCCCNc1nc(N)nc2cn(Cc3cc(C)nn3C)nc12 [Compound 173] | 2.73 | 0.246 |
| CCCCNc1nc(N)nc2cn(Cc3ncnn3C)nc12 [Compound 174] | 8.32 | 1.45 |
| CCCCNc1nc(N)nc2cn(Cc3sc(C)nc3C)nc12 [Compound 175] | 1.11 | 0.112 |
| CCCCNc1nc(N)nc2cn(Cc3ccc(CC(C)N)cc3OC)nc12 (stereo not shown) [Compound 176] | 0.467 | 0.329 |
| CCCCNc1nc(N)nc2cn(Cc3ccnn3CC)nc12 [Compound 177] | 2.81 | 0.681 |
| CCCCNc1nc(N)nc2cn(Cc3ccc(CC(C)N)cc3OC)nc12 (stereo not shown) [Compound 178] | 0.455 | 0.294 |
| CCCCNc1nc(N)nc2cn(Cc3ccccc3OC(F)F)nc12 [Compound 179] | 1.89 | 0.226 |
| CCCCNc1nc(N)nc2cn(Cc3cncn3C)nc12 [Compound 180] | 6.37 | 1.14 |
| CCCCNc1nc(N)nc2cn(Cc3scnc3C)nc12 [Compound 181] | 1.5 | 0.171 |
| CCCCNc1nc(N)nc2cn(Cc3cncn3C3CC3)nc12 [Compound 182] | 3.36 | 0.929 |
| C=CCN(C)Cc1cc(OC)c(Cn2cc3nc(N)nc(N[C@@H](C)CCC)c3n2)c(OC)c1 [Compound 183] | 0.38 | 0.0308 |
| CCC[C@H](C)Nc1nc(N)nc2cn(Cc3c(OC)cc(Br)cc3OC)nc12 [Compound 184] | 0.728 | 0.103 |
| C=CCN(C)Cc1cnc(Cn2cc3nc(N)nc(N[C@H](CO)CCC)c3n2)c(OC)c1 [Compound 185] | 0.103 | 0.382 |
| CCCCNc1nc(N)nc2cn(Cc3ccc(CN(C)C)o3)nc12 [Compound 186] | 0.278 | 0.19 |
| C=CCN(C)Cc1cc(OC)c(Cn2cc3nc(N)nc(N[C@H](C)CCC)c3n2)c(OC)c1 [Compound 187] | 0.0633 | 0.02 |
| CCCCNc1nc(N)nc2cn(Cc3[nH]cnc3C)nc12 [Compound 188] | 12.4 | 5.44 |
| CCC[C@@H](C)Nc1nc(N)nc2cn(Cc3c(OC)cc(CNC)cc3OC)nc12 [Compound 189] | 0.29 | 0.09 |
| CCC[C@H](C)Nc1nc(N)nc2cn(Cc3c(OC)cc(CNC)cc3OC)nc12 [Compound 190] | 2.21 | 0.187 |
| CCCCNc1nc(N)nc2cn(Cc3ccc(CN4CC(N)C4)cc3OC)nc12 [Compound 191] | 0.86 | 0.541 |
| CCCCNc1nc(N)nc2cn(Cc3c(OC)cc(CN4CC(N)C4)cc3OC)nc12 [Compound 192] | 1.16 | 0.653 |
| CCCCNc1nc(N)nc2cn(Cc3ccc(C(C)NC)cc3OC)nc12 (stereo not shown) [Compound 193] | 0.106 | 0.0577 |
| CCCCNc1nc(N)nc2cn(Cc3ccc(C(C)NC)cc3OC)nc12 (stereo not shown) [Compound 194] | 0.137 | 0.139 |
| CCC[C@@H](CO)Nc1nc(N)nc2cn(Cc3ncc(CNC)cc3OC)nc12 [Compound 195] | 0.785 | 1.59 |

| SMILES | EC50 (hTLR8) [µM] | EC50 (hTLR7) [µM] |
| --- | --- | --- |
| CCCCNc1nc(N)nc2cn(Cc3ccc(C4CCNC4)cc3)nc12 (stereo not shown) [Compound 196] | 0.756 | 0.456 |
| CCCCNc1nc(N)nc2cn(Cc3cn(C)nc3OC)nc12 [Compound 197] | 1.59 | 0.277 |
| CCCCNc1nc(N)nc2cn(Cc3ccc(C4CCNC4)cc3)nc12 (stereo not shown) [Compound 198] | 0.835 | 0.396 |
| CCC[C@@H](CO)Nc1nc(N)nc2cn(Cc3c(OC)cc(CN(C)C)cc3OC)nc12 [Compound 199] | 0.0399 | 0.108 |
| CCCCNc1nc(N)nc2cn(Cc3ccc(C4CCNC4=O)cc3)nc12 (stereo not shown) [Compound 200] | 4.9 | 0.185 |
| CCCCNc1nc(N)nc2cn(Cc3ccc(C4CCC(=O)N4)cc3)nc12 (stereo not shown) [Compound 201] | 3.26 | 0.539 |
| CCCCNc1nc(N)nc2cn(Cc3ccc(C4CCNC4=O)cc3)nc12 (stereo not shown) [Compound 202] | 3.47 | 0.354 |
| CCCCNc1nc(N)nc2cn(Cc3ccc(C4CCC(=O)N4)cc3)nc12 (stereo not shown) [Compound 203] | 11.4 | 0.526 |
| CCCCNc1nc(N)nc2cn(Cc3ccc(C4CCCN4)cc3)nc12 (stereo not shown) [Compound 204] | 0.533 | 0.508 |
| CCCCNc1nc(N)nc2cn(Cc3ccc(C4CCCN4)cc3)nc12 (stereo not shown) [Compound 205] | 0.519 | 0.409 |
| CCCCNc1nc(N)nc2cn(Cc3c(OC)cccc3OCCCC(=O)OC)nc12 [Compound 206] | 2.64 | 0.38 |
| CCCCNc1nc(N)nc2cn(Cc3c(OC)cccc3OCCCCC(=O)OC)nc12 [Compound 207] | 2.34 | 0.806 |
| CCCCNc1nc(N)nc2cn(Cc3c(OC)cccc3OCCCCO)nc12 [Compound 208] | 0.906 | 0.299 |
| CCCCNc1nc(N)nc2cn(Cc3c(OC)cc(C(C)NC)cc3OC)nc12 (stereo not shown) [Compound 209] | 0.161 | 0.2 |
| CCC[C@@H](CO)Nc1nc(N)nc2cn(Cc3c(OC)cc(CN(C)CCCN)cc3OC)nc12 [Compound 210] | 15.5 | 20.1 |
| CCCCNc1nc(N)nc2cn(Cc3c(OC)cc(C(C)NC)cc3OC)nc12 (stereo not shown) [Compound 211] | 0.198 | 0.365 |
| CCCCNc1nc(N)nc2cn(Cc3nnco3)nc12 [Compound 212] | 8.14 | 7.75 |
| CCC[C@@H](CO)Nc1nc(N)nc2cn(Cc3c(OC)cc(CN(C)CCN)cc3OC)nc12 [Compound 213] | 2.23 | 4.75 |
| CCCCNc1nc(N)nc2cn(Cc3c(OC)cc(C(C)N)cc3OC)nc12 (stereo not shown) [Compound 214] | 0.235 | 0.525 |
| CCCCNc1nc(N)nc2cn(Cc3c(OC)cc(C(C)N)cc3OC)nc12 (stereo not shown) [Compound 215] | 0.224 | 0.474 |
| CCCCNc1nc(N)nc2cn(Cc3ccc(C(C)NCCC)cc3OC)nc12 (stereo not shown) [Compound 216] | 0.119 | 0.106 |
| CCCCNc1nc(N)nc2cn(Cc3ccc(C(C)NCCC)cc3OC)nc12 (stereo not shown) [Compound 217] | 0.0917 | 0.0517 |
| CCC[C@@H](CO)Nc1nc(N)nc2cn(Cc3c(OC)cc(CN(C)CCNC(=O)c4cccnc4)cc3OC)nc12 [Compound 218] | 1.49 | 6.36 |

— patent publication US20230219962A1, “PYRAZOLO[4,3-d]PYRIMIDINE DERIVATIVES AND METHODS OF USE THEREOF FOR THE TREATMENT OF CELLULAR PROLIFERATIVE DISORDERS” (Merck Sharp & Dohme LLC, priority 2020, published 2023)
